Assay results reported in patent US20250032514A1, “COMPOSITIONS AND METHODS FOR THE TREATMENT OF VARIOUS DISEASES” (Amylyx Pharmaceuticals, Inc., priority 2023, published 2025).
Like-named read-outs stand apart in the source and are kept apart here.

Assays:
[1] = Study A35-002: single-dose PK of AMX0035, fasted vs high-fat meal, two-period cross-over; type: in vivo, human; conditions: for half-life: both sexes, human, plasma
Description: The pharmacokinetics (PK) of PB and TURSO after a single dose administration of AMX0035 were determined in adult (40 to 55 years of age) male and female normal healthy participants. Fourteen participants received a single dose of AMX0035 on two occasions (with a washout between periods of no less than 4 days), after fasting or after a high-fat standardized meal in a balanced, two-period, cross-over design (Study A35-002).
Clearance is rapid, and the terminal half-life (t1/2) is less than 1 hour. […] The primary metabolite of PB is phenylacetate (PAA), which occurs endogenously as a phenylalanine metabolite. […] Many participants had two or three peaks of absorption, which is consistent with bile acid storage and release upon a meal/snack. […] The primary metabolites of TURSO include ursodeoxycholic acid (UDCA) and glycoursodeoxycholic acid (GUDCA). All three are naturally occurring hydrophilic bile acids and subject to extensive enterohepatic recirculation.

[2] = in vivo; cited from earlier work
[3] = test system: G93A SOD1 mouse model of ALS; conditions: cited from earlier work
[4] = single oral dose of AMX0035, healthy adults

| half-life ([1]; oral, fasting, read-out: terminal t1/2 (average) (converted)) [h] | terminal t1/2 (average) ([1]; fed) [h] | absorption of TURSO ([1]; given with or without food) | Cmax in the presence of a high-fat meal ([1]; high-fat meal vs fasted) | increase in exposure as AUC0-last in the presence of a high-fat meal ([1]; high-fat meal vs fasted) | Compound | most common adverse reactions reported (≥1%) [2] | survival in in vivo models [3] | half-life ([1]; oral, under both the fed and fasted condition, read-out: terminal half-life (converted)) [h] | half-life ([1]; single oral dose of AMX0035, healthy adults, read-out: terminal half-life (t1/2)) [h] | absorption in the presence of a high-fat meal ([1]; high-fat meal vs fasted) | overall exposure in the presence of a high-fat meal ([1]; high-fat meal vs fasted) | absorption of PB [1, 4] | clearance [1, 4] |
| --- | --- | --- | --- | --- | --- | --- | --- | --- | --- | --- | --- | --- | --- |
| 4.8 | 3.6 | slowly absorbed | similar | less than 1 fold | C[C@H](CCC(=O)NCCS(=O)(=O)O)[C@H]1CC[C@H]2[C@@H]3[C@@H](O)C[C@@H]4C[C@H](O)CC[C@]4(C)[C@H]3CC[C@]12C [TURSO, taurursodiol] | abdominal discomfort, abdominal pain, diarrhea, nausea, pruritus, and rash |  |  |  |  |  |  |  |
|  |  |  |  |  | O=C(O)CCCc1ccccc1 [PB, sodium phenylbutyrate] |  | increase survival | ~0.5 | < 1 | significantly slower | lower | rapidly absorbed | rapid |
